What all share (assay type): in vivo
The subject of assay [1] is intra-tibial MRMT-1 rat mammary gland carcinoma cells (bone cancer pain). Put plainly: Rat model of bone cancer pain: mechanical allodynia (static and dynamic). Particulars: day 20; for static allodynia (punctuate stimulus), ipsilateral paw: 90 minutes after the last administration. On the procedure: Adult female rats are given intra-tibial injections of MRMT-1 rat mammary gland carcinoma cells (3 μl, 10^7 cells/ml). These animals gradually develop mechanical hyperalgesia, mechanical allodynia (skin sensitivity to non-noxious stimuli) and hind limb sparing, beginning on day 12-14 following cell injection.

Assay [2] relates to intra-tibial MRMT-1 rat mammary gland carcinoma cells (bone cancer). Put plainly: Rat model of bone cancer pain: radiologically observed structural changes and bone mineral density. On the procedure: Adult female rats are given intra-tibial injections of MRMT-1 rat mammary gland carcinoma cells (3 μl, 10^7 cells/ml).
Assay [3] deals with intra-tibial MRMT-1 rat mammary gland carcinoma cells (bone cancer pain). Put plainly: Rat model of bone cancer pain: weight-bearing difference (hind limb sparing). Particulars: for weight-bearing difference between contralateral and ipsilateral paw: measured 1 hour after drug administration. On the procedure:
Adult female rats are given intra-tibial injections of MRMT-1 rat mammary gland carcinoma cells (3 μl, 10^7 cells/ml). These animals gradually develop mechanical hyperalgesia, mechanical allodynia (skin sensitivity to non-noxious stimuli) and hind limb sparing, beginning on day 12-14 following cell injection. […] Intra-tibial inoculation of MRMT-1 cells induces a time-dependent hypersensitivity in the ipsilateral limb, measured as a shift in body weight to the contralateral limb. The increase in weight-bearing difference between contralateral and ipsilateral paw (weight shift from the affected to the unaffected limb) is evident by day 14 post-inoculation and continues to increase until day 20. […] This effect is significant for COX189 on days 10, 14, 17 and 20 as well as for valdecoxib (30 mg/kg, p.o.) on day 20. […] Lower doses are not studied. […] The treatments induces a progressive and long-lasting reduction in hypersensitivity, since the weight-bearing difference is also attenuated when measured 1 h before the first daily treatment. This preventative effect reaches significant levels for all three treatments on days 14 and 17. There is no significant difference between the effects measured before and after COX189 administration on each day for any individual treatment.

Where [4] appears, read: 30 mg/kg repeated administration, day 20.

The structures appear in SMILES notation.

Regarding `Cc1ccc(Nc2c(F)cccc2Cl)c(CC(=O)O)c1` [COX189, 5-methyl-2-(2′-chloro-6′-fluoroanilino)-phenylacetic acid], the “static allodynia (punctuate stimulus), ipsilateral paw” value in assay [1] (10 mg/kg p.o. repeated) and in assay [1] (30 mg/kg p.o. repeated) was “significantly reverses” each time. In addition, in assay [1] (30 mg/kg p.o. repeated), the “dynamic allodynia (light stroking of the skin), ipsilateral paw” value was “reaches statistical significance”. The “radiologically observed structural changes” value in assay [2] (10 mg/kg repeated administration, day 20) is “significantly inhibits”; in assay [2] (setting [4]) it was “significantly inhibits”. Besides, the “loss of bone mineral density compared to vehicle treated animals” value in assay [2] (setting [4]) was “significantly inhibit”. The “radiologically observed structural changes in an animal model of bone cancer pain” value in assay [2] (summary statement, no dose given) is given as “inhibit”. The “weight-bearing difference between contralateral and ipsilateral paw” value in assay [3] (10 mg/kg p.o. repeated from day 10 post-inoculation, days 14, 17 and 20) is on record as “significantly attenuates”; in assay [3] (30 mg/kg p.o. repeated from day 10 post-inoculation, days 14, 17 and 20), “significantly attenuates”. Moreover, the “dose-dependence of the effect on weight-bearing difference” value in assay [3] (10 versus 30 mg/kg p.o.) is reported as “not dose-dependent”.
As for `Cc1onc(-c2ccccc2)c1-c1ccc(S(N)(=O)=O)cc1` [valdecoxib, reference compound], the “static allodynia (punctuate stimulus), ipsilateral paw” value in assay [1] (30 mg/kg p.o. repeated) is on record as “significantly reverses”. Besides, in assay [3] (30 mg/kg p.o. repeated, day 20), the “weight-bearing difference between contralateral and ipsilateral paw” value is reported as “significant”.

Values taken from patent US20060004104A1, “Methods and compositions for treatment of cancer pain” (priority 2002, published 2006).
